This is an account of results in patent US20120264735A1 (priority 2009, published 2012).

Where only a bound is given, the exact number is not on record here.

T1 sequence (P08581 25-1390): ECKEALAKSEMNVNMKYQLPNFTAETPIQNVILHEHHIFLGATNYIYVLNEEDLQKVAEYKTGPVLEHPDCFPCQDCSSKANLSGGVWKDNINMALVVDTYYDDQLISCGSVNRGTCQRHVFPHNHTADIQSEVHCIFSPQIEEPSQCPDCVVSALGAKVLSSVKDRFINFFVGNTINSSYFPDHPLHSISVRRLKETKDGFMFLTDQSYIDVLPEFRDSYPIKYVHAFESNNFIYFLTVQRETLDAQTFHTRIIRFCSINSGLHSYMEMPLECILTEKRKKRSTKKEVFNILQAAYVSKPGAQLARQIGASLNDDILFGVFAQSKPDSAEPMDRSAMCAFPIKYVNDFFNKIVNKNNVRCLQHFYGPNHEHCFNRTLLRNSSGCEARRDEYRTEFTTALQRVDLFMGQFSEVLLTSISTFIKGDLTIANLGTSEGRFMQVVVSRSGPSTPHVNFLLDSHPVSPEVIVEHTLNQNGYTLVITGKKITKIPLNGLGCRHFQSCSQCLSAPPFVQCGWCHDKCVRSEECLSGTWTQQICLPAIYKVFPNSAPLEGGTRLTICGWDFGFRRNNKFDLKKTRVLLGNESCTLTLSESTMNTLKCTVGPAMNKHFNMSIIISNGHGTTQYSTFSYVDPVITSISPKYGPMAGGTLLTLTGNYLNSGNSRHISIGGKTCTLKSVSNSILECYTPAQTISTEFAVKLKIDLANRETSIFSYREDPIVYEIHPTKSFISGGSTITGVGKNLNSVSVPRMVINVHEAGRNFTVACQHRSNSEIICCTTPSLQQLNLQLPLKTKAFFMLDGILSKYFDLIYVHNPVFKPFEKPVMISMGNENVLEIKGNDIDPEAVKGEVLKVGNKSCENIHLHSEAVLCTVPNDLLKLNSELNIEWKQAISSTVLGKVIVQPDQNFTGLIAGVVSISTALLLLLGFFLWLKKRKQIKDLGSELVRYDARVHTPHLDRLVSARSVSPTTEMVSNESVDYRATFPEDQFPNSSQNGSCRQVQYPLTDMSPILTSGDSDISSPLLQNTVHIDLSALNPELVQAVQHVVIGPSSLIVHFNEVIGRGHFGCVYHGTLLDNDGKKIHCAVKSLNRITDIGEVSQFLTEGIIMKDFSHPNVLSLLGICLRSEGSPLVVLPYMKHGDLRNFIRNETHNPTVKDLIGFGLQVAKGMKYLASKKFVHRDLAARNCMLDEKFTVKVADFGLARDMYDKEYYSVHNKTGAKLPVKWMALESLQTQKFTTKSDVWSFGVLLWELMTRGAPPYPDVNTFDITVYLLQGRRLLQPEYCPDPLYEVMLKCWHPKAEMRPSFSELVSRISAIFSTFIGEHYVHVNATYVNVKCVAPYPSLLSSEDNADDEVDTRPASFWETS

This assay concerns the target T1, c-Met kinase (recombinant c-Met) (Homo sapiens, UniProt P08581).
T1 construct: 0.27 nM recombinant c-Met
Briefly: In vitro kinase assay I (homogeneous time-resolved fluorescence tyrosine kinase assay). The class given is biochemical. The procedure, abridged: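 Biotinylated peptide (0.5 μM) phosphorylated by 0.2 nM recombinant c-Met with 50 μM MgATP, 60 min at room temperature, pH 7.4, 5% DMSO. EDTA stop; HTRF read with Eu-anti-phosphotyrosine antibody and streptavidin-APC. IC50 from 4-parameter logistic fit.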
Take `O=c1ccn(-c2cc(F)c(F)c(F)c2)nc1Cc1ccc2ncnn2c1` [Example 10, 3-([1,2,4]triazolo[1,5-a]pyridin-6-ylmethyl)-1-(3,4,5-trifluorophenyl)pyridazin-4(1H)-one]: the half-maximal inhibitory concentration (IC50) lay within 1 to 3 µM. Regarding `COCCn1cc(-n2ccc(=O)c(Cc3cccc(NC(=O)OCC(C)C)c3)n2)cn1` [Example 108, 2-methylpropyl [3-({1-[1-(2-methoxyethyl)-1H-pyrazol-4-yl]-4-oxo-1,4-dihydropyridazin-3-yl}methyl)phenyl]carbamate], the IC50 is under 0.1 µM.

As for `Cn1cc(-n2ccc(=O)c(Cc3cccc(NC(=O)OCCC4CCNCC4)c3)n2)cn1` [Example 624, 2-piperidin-4-ylethyl (3-{[1-(1-methyl-1H-pyrazol-4-yl)-4-oxo-1,4-dihydropyridazin-3-yl]methyl}phenyl)carbamate], the half-maximal inhibitory concentration (IC50) was under 0.1 µM. The result for `N#Cc1cc(Cl)cc(-n2ccc(=O)c(Cc3cccc(NC(=O)OCC4CCOC4)c3)n2)c1` (racemic) [Example 141, rac-tetrahydrofuran-3-ylmethyl (3-{[1-(3-chloro-5-cyanophenyl)-4-oxo-1,4-dihydropyridazin-3-yl]methyl}phenyl)carbamate] reads under 0.1 µM. The value for `Cn1cc(-n2ccc(=O)c(Cc3cccc(NC(=O)OCCCN4CCNCC4)c3)n2)cn1` [Example 626, 3-piperazin-1-ylpropyl (3-{[1-(1-methyl-1H-pyrazol-4-yl)-4-oxo-1,4-dihydropyridazin-3-yl]methyl}phenyl)carbamate] was under 0.1 µM; that for `O=c1ccn(-c2cn[nH]c2)nc1Cc1cccc(-c2ncc(O)cn2)c1` [Example 194, 3-[3-(5-Hydroxypyrimidin-2-yl)benzyl]-1-(1H-pyrazol-4-yl)pyridazin-4(1H)-one] was 0.1 to 1 µM; that for `Cn1cc(-n2ccc(=O)c(Cc3cccc(-c4ncc(N5CCC(O)CC5)cn4)c3)n2)cn1` [Example 442, 3-{3-[5-(4-hydroxypiperidin-1-yl)pyrimidin-2-yl]benzyl}-1-(1-methyl-1H-pyrazol-4-yl)pyridazin-4(1H)-one] was under 0.1 µM.

As to `N#Cc1cccc(-n2ccc(=O)c(Cc3cccc(NC(=O)OCCN4CCS(=O)(=O)CC4)c3)n2)c1` [Example 596, 2-(1,1-dioxidothio-morpholin-4-yl)ethyl (3-{[1-(3-cyanophenyl)-4-oxo-1,4-dihydropyridazin-3-yl]methyl}phenyl)carbamate], the IC50 was under 0.1 µM. The value for `Cn1cc(-n2ccc(=O)c(Cc3cccc(-c4noc(CN5CCOCC5)n4)c3)n2)cn1` [Example 743, 1-(1-methyl-1H-pyrazol-4-yl)-3{3-[5-(morpholin-4-ylmethyl)-1,2,4-oxadiazol-3-yl]benzyl}pyridazin-4(1H)-one] was 0.1 to 1 µM. The result for `COc1cnc(-c2cccc(Cc3nn(-c4cc(F)cc(C#N)c4)ccc3=O)c2)nc1` [Example 128, 3-fluoro-5-{3-[3-(5-methoxypyrimidin-2-yl)benzyl]-4-oxopyridazin-1(4H)-yl}benzonitrile] reads under 0.1 µM; that for `CCOC(=O)Nc1cccc(Cc2nn(-c3cnn(CC(F)(F)F)c3)ccc2=O)c1` [Example 111, ethyl [3-({4-oxo-1-[1-(2,2,2-trifluoroethyl)-1H-pyrazol-4-yl]-1,4-dihydropyridazin-3-yl}methyl)phenyl]carbamate], under 0.1 µM; that for `CC(C)Oc1cnc(-c2cccc(Cc3nn(-c4cnn(C)c4)ccc3=O)c2)nc1` [Example 270, 3-{3-[5-(1-methylethoxy)pyrimidin-2-yl]benzyl}-1-(1-methyl-1H-pyrazol-4-yl)pyridazin-4(1H)-one], under 0.1 µM. For the compound `COCCNc1cnc(-c2cccc(Cc3nn(-c4cnn(C)c4)ccc3=O)c2)nc1` [Example 453, 3-(3-{5-[(2-methoxyethyl)amino]pyrimidin-2-yl}benzyl)-1-(1-methyl-1H-pyrazol-4-yl)pyridazin-4(1H)-one], the half-maximal inhibitory concentration (IC50) is under 0.1 µM. The result for `COCCn1cnc(-c2cccc(Cc3nn(-c4cnn(C)c4)ccc3=O)c2)n1` [Example 66, 3-{3-[1-(2-methoxyethyl)-1H-1,2,4-triazol-3-yl]benzyl}-1-(1-methyl-1H-pyrazol-4-yl)pyridazin-4(1H)-one] reads under 0.1 µM; that for `Cn1cc(-n2ccc(=O)c(Cc3ccc4[nH]ncc4c3)n2)cn1` [Example 184, 3-(1H-Indazol-5-ylmethyl)-1-(1-methyl-1H-pyrazol-4-yl)pyridazin-4(1H)-one], 0.1 to 1 µM; that for `CCn1cc(-n2ccc(=O)c(Cc3cccc(-c4ncc(OCC5COCCO5)cn4)c3)n2)cn1` (racemic) [Example 311, rac-3-{3-[5-(1,4-dioxan-2-ylmethoxy)pyrimidin-2-yl]benzyl}-1-(1-ethyl-1H-pyrazol-4-yl)pyridazin-4(1H)-one], under 0.1 µM. The result for `CCC(=O)Nc1cccc(Cc2nn(-c3cnn(C)c3)ccc2=O)c1` [Example 635, N-(3-{[1-(1-methyl-1H-pyrazol-4-yl)-4-oxo-1,4-dihydropyridazin-3-yl]methyl}phenyl)propanamide] reads 0.1 to 1 µM; that for `COCCN1CCC(COC(=O)Nc2cccc(Cc3nn(-c4cccc(C#N)c4)ccc3=O)c2)C1` (racemic) [Example 585, rac-[1-(2-methoxyethyl)pyrrolidin-3-yl]methyl (3-{[1-(3-cyanophenyl)-4-oxo-1,4-dihydropyridazin-3-yl]methyl}phenyl)carbamate], under 0.1 µM; that for `Cn1cc(-n2ccc(=O)c(Cc3cccc(-c4ncc(-c5cc[nH]n5)cn4)c3)n2)cn1` [Example 420, 1-(1-methyl-1H-pyrazol-4-yl)-3-{3-[5-(1H-pyrazol-3-yl)pyrimidin-2-yl]benzyl}pyridazin-4(1H)-one], under 0.1 µM. The value for `CCn1cc(-n2ccc(=O)c(C(C)c3cccc(-c4ncc(OCc5ccccc5)cn4)c3)n2)cn1` (single isomer, unassigned) [Example 229, 3-((1R or S)-1-{3-[5-(benzyloxy)pyrimidin-2-yl]phenyl}ethyl)-1-(1-ethyl-1H-pyrazol-4-yl)pyridazin-4(1H)-one] was under 0.1 µM. In the case of `O=c1ccn(-c2ccccc2)nc1Cc1cccc(-c2ncccn2)c1` [Example 669, 1-Phenyl-3-[3-(pyrimidin-2-yl)benzyl]pyridazin-4(1H)-one], the IC50 lay within 0.1 to 1 µM. The value for `O=c1ccn(-c2ccc(F)c(F)c2)nc1Cc1cccc(-c2ncc(OCC3(O)CCOCC3)cn2)c1` [Example 373, 1-(3,4-difluorophenyl)-3-(3-{5-[(4-hydroxytetrahydro-2H-pyran-4-yl)methoxy]pyrimidin-2-yl}benzyl)pyridazin-4(1H)-one] was under 0.1 µM. With `Cn1cc(-n2ccc(=O)c(Cc3cccc(NC(=O)OCCN4CCOCC4)c3)n2)cn1` [Example 531], the half-maximal inhibitory concentration (IC50) was under 0.1 µM. As for `Cn1cc(-n2ccc(=O)c(Cc3cccc(-c4ncc(NC(=O)CC5CCCO5)cn4)c3)n2)cn1` (racemic) [Example 464, rac-N-[2-(3-{[1-(1-methyl-1H-pyrazol-4-yl)-4-oxo-1,4-dihydro-pyridazin-3-yl]methyl}phenyl)pyrimidin-5-yl]-2-(tetrahydro-furan-2-yl)acetamide], the half-maximal inhibitory concentration (IC50) was 0.1 to 1 µM.

As a reminder, the IC50 is the concentration that inhibits the measured activity by half.
